# Measurements from patent US20100298141A1, “SUBSTITUTED PYRIDINE N-OXIDE HERBICIDES” (E. I. DU PONT DE NEMOURS AND COMPANY, priority 2007, published 2010).
# Legend:
# [1] = tested on: wheat; assay: Test A pre-/postemergence greenhouse test; format: in vivo, Triticum aestivum; conditions: for Plant response rating, Wheat: 0 to 100 scale where 0 is no effect and 100 is complete control; for Wheat plant response rating: 0 to 100 scale
# How it was run: (§1)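 Greenhouse herbicide screen, pre- and postemergence in parallel. Soil: loam plus sand. Formulation: non-phytotoxic solvent mix with surfactant. Postemergence stage: one to two leaves, 2–10 cm height. Evaluation: visual injury, compared with untreated controls, about 10 days after treatment.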
# [2] = tested on: johnsongrass; assay: Test C pre-/postemergence test; format: in vivo, Sorghum halepense; conditions: for Plant response rating, Johnsongrass: 31 g ai/ha, scale 0 to 100 (0 no effect, 100 complete control)
# Text: (§2) Seeds of plant species selected from blackgrass (Alopecurus myosuroides), downy brome (Bromus tectorum), green foxtail (Setaria viridis), Italian ryegrass (Lolium multiflorum), wheat (Triticum aestivum), wild oat (Avena fatua), catchweed bedstraw (Galium aparine), Russian thistle (Salsola kali), […] (Cynodon dactylon), Surinam grass (Brachiaria decumbens), cocklebur (Xanthium strumarium), corn (Zea mays), crabgrass (Digitaria sanguinalis), woolly cupgrass (Eriochloa villosa), giant foxtail (Setaria faberii), Goosegrass (Eleusin indica), johnsongrass (Sorghum halepense), kochia (Kochia scoparia), lambsquarters (Chenopodium album), morningglory (Ipomoea coccinea), eastern black nightshade (Solanum ptycanthum), yellow nutsedge (Cyperus esculentus), pigweed (Amaranthus retroflexus), common ragweed (Ambrosia elation), soybean (Glycine max), common (oilseed) sunflower (Helianthus annuus), and velvetleaf (Abutilon theophrasti) were planted and treated preemergence with test chemicals formulated in a non-phytotoxic solvent mixture which included a surfactant. At the same time, plants selected from these crop and weed species and also winter barley (Hordeum vulgare), canarygrass (Phalaris minor), and chickweed (Stellaria media) were treated with postemergence applications of some of the test chemicals formulated in the same manner. Plants ranged in height from 2 to 18 cm (1- to 4-leaf stage) for postemergence treatments. […] At time of treatment, test pots were flooded to 3 cm above the soil surface, treated by application of test compounds directly to the paddy water, and then maintained at that water depth for the duration of the test. […] A dash (-) response means no test result.
# [3] = tested on: giant foxtail; assay: Test A pre-/postemergence greenhouse test; format: in vivo, Setaria faberi; conditions: for Plant response rating, Foxtail, Giant: 0 to 100 scale where 0 is no effect and 100 is complete control; for Foxtail, Giant plant response rating: 0 to 100 scale
# How it was run: as §1
# [4] = tested on: Goosegrass; assay: Test C pre-/postemergence test; format: in vivo, Eleusin indica; conditions: for Plant response rating, Goosegrass: 31 g ai/ha, scale 0 to 100 (0 no effect, 100 complete control)
# Text: as §2
# [5] = tested on: redroot pigweed; assay: Test A pre-/postemergence greenhouse test; format: in vivo, Amaranthus retroflexus; conditions: for Plant response rating, Pigweed: 0 to 100 scale where 0 is no effect and 100 is complete control; for Pigweed plant response rating: 0 to 100 scale
# How it was run: as §1
# [6] = tested on: bermudagrass; assay: Test C pre-/postemergence test; format: in vivo, Cynodon dactylon; conditions: for Plant response rating, Bermudagrass: 31 g ai/ha
# Text: as §2
# [7] = tested on: duck salad; assay: Test C flooded paddy test; format: in vivo, Heteranthera limosa; conditions: Flood
# How it was run: (§3)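 Flooded 3 cm over soil; compound into paddy water; depth kept constant. Greenhouse 13–15 d.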
# [8] = tested on: velvetleaf; assay: Test A pre-/postemergence greenhouse test; format: in vivo, Abutilon theophrasti; conditions: for Plant response rating, Velvetleaf: 0 to 100 scale where 0 is no effect and 100 is complete control; for Velvetleaf plant response rating: 0 to 100 scale
# How it was run: as §1
# [9] = tested on: velvetleaf; assay: Test C pre-/postemergence test; format: in vivo, Abutilon theophrasti; conditions: for Plant response rating, Velvetleaf: 31 g ai/ha, scale 0 to 100 (0 no effect, 100 complete control)
# Text: as §2
# [10] = tested on: giant foxtail; assay: Test C pre-/postemergence test; format: in vivo, Setaria faberii; conditions: for Plant response rating, Foxtail, Giant: 31 g ai/ha, scale 0 to 100 (0 no effect, 100 complete control)
# Text: as §2
# [11] = tested on: barnyardgrass; assay: Test C flooded paddy test; format: in vivo, Echinochloa crus-galli; conditions: Flood
# How it was run: as §3
# [12] = tested on: Surinam grass; assay: Test C pre-/postemergence test; format: in vivo, Brachiaria decumbens; conditions: for Plant response rating, Surinam Grass: 31 g ai/ha, scale 0 to 100 (0 no effect, 100 complete control)
# Text: as §2
# [13] = tested on: rice; assay: Test C flooded paddy test; format: in vivo, Oryza sativa; conditions: Flood
# How it was run: as §3
# [14] = tested on: corn; assay: Test A pre-/postemergence greenhouse test; format: in vivo, Zea mays; conditions: for Plant response rating, Corn: 0 to 100 scale where 0 is no effect and 100 is complete control; for Corn plant response rating: 0 to 100 scale
# How it was run: as §1
# [15] = tested on: common ragweed; assay: Test C pre-/postemergence test; format: in vivo, Ambrosia elation; conditions: for Plant response rating, Ragweed: 31 g ai/ha, scale 0 to 100 (0 no effect, 100 complete control)
# Text: as §2
# [16] = tested on: wild oat; assay: Test C pre-/postemergence test; format: in vivo, Avena fatua; conditions: for Plant response rating, Oat, Wild: 31 g ai/ha, scale 0 to 100 (0 no effect, 100 complete control)
# Text: as §2
# [17] = Postemergence, 500 g ai/ha, 0 is no effect, 100 is complete control
# [18] = Preemergence, 125 g ai/ha, 0 no effect, 100 complete control
# [19] = 62 g ai/ha, Preemergence, scale 0 to 100
# [20] = preemergence, 250 g ai/ha, scale 0 (no effect) to 100 (complete control)
# [21] = 125 g ai/ha, preemergence, scale 0 (no effect) to 100 (complete control)
# [22] = 62 g ai/ha, Preemergence, scale 0 to 100 (0 no effect, 100 complete control)
# [23] = Preemergence, scale 0 to 100 (0 no effect, 100 complete control)
# [24] = 62 g ai/ha, scale 0 to 100 (0 no effect, 100 complete control)
# [25] = 250 g ai/ha, scale 0 to 100, 0 no effect, 100 complete control, 13 to 15 days
smiles,measurement,setting,value
CCn1nc(C(F)(F)F)c(CS(=O)(=O)c2cccc[n+]2[O-])c1OCC(F)(F)F [Compound 63],"Plant response rating, Wheat","[1]; Postemergence, 125 g ai/ha",50
same,Wheat plant response rating,[1]; [17],60
same,Wheat plant response rating,[1]; [18],20
same,"Plant response rating, Wheat","[1]; Preemergence, 500 g ai/ha",80
same,Johnsongrass plant response rating,[2]; [19],85
same,"Plant response rating, Johnsongrass",[2]; Preemergence,85
same,Johnsongrass plant response rating,[2]; [20],98
same,"Plant response rating, Foxtail, Giant","[3]; Postemergence, 125 g ai/ha",80
same,"Foxtail, Giant plant response rating",[3]; [17],90
same,"Foxtail, Giant plant response rating",[3]; [18],100
same,"Plant response rating, Foxtail, Giant","[3]; Preemergence, 500 g ai/ha",100
same,Goosegrass plant response rating,[4]; [19],100
same,Goosegrass plant response rating,[4]; [21],100
same,"Plant response rating, Goosegrass",[4]; Preemergence,100
same,Goosegrass plant response rating,[4]; [20],100
same,"Plant response rating, Pigweed","[5]; Postemergence, 125 g ai/ha",50
same,Pigweed plant response rating,[5]; [17],80
same,Pigweed plant response rating,[5]; [18],70
same,"Plant response rating, Pigweed","[5]; Preemergence, 500 g ai/ha",100
same,Bermudagrass plant response rating,[6]; [22],100
same,Bermudagrass plant response rating,[6]; [21],100
same,"Plant response rating, Bermudagrass",[6]; [23],100
same,Bermudagrass plant response rating,[6]; [20],100
same,"Plant response rating, Ducksalad",[7]; [24],0
same,"Plant response rating, Ducksalad",[7]; [25],75
same,"Plant response rating, Velvetleaf","[8]; Postemergence, 125 g ai/ha",60
same,Velvetleaf plant response rating,[8]; [17],80
same,Velvetleaf plant response rating,[8]; [18],60
same,"Plant response rating, Velvetleaf","[8]; Preemergence, 500 g ai/ha",100
same,Velvetleaf plant response rating,[9]; [19],80
same,Velvetleaf plant response rating,[9]; [21],85
same,"Plant response rating, Velvetleaf",[9]; Preemergence,50
same,Velvetleaf plant response rating,[9]; [20],100
same,"Foxtail, Giant plant response rating",[10]; [19],100
same,"Foxtail, Giant plant response rating",[10]; [21],100
same,"Plant response rating, Foxtail, Giant",[10]; Preemergence,100
same,"Foxtail, Giant plant response rating",[10]; [20],100
same,"Plant response rating, Barnyardgrass",[11]; [24],40
same,"Plant response rating, Barnyardgrass",[11]; [25],40
same,Surinam Grass plant response rating,[12]; [19],100
same,Surinam Grass plant response rating,[12]; [21],100
same,"Plant response rating, Surinam Grass",[12]; Preemergence,100
same,Surinam Grass plant response rating,[12]; [20],100
same,"Plant response rating, Rice",[13]; [24],30
same,"Plant response rating, Rice",[13]; [25],35
same,"Plant response rating, Corn","[14]; Postemergence, 125 g ai/ha",30
same,Corn plant response rating,[14]; [17],60
same,Corn plant response rating,[14]; [18],0
same,"Plant response rating, Corn","[14]; Preemergence, 500 g ai/ha",50
same,Ragweed plant response rating,[15]; [19],100
same,Ragweed plant response rating,[15]; [21],100
same,"Plant response rating, Ragweed",[15]; Preemergence,90
same,Ragweed plant response rating,[15]; [20],100
same,"Oat, Wild plant response rating",[16]; [19],60
same,"Oat, Wild plant response rating",[16]; [21],85
same,"Plant response rating, Oat, Wild",[16]; Preemergence,50
same,"Oat, Wild plant response rating",[16]; [20],95
CCn1nc(C(F)(F)F)c(C[S+]([O-])c2cc(C)cc[n+]2[O-])c1OCC(F)(F)F (racemic) [Compound 66],"Plant response rating, Wheat","[1]; Postemergence, 125 g ai/ha",60
same,Wheat plant response rating,[1]; [17],70
same,Wheat plant response rating,[1]; [18],70
same,"Plant response rating, Wheat","[1]; Preemergence, 500 g ai/ha",100
same,Johnsongrass plant response rating,[2]; [21],80
same,"Plant response rating, Johnsongrass",[2]; Preemergence,80
same,Johnsongrass plant response rating,[2]; [20],80
same,"Plant response rating, Foxtail, Giant","[3]; Postemergence, 125 g ai/ha",80
same,"Foxtail, Giant plant response rating",[3]; [17],90
same,"Foxtail, Giant plant response rating",[3]; [18],90
same,"Plant response rating, Foxtail, Giant","[3]; Preemergence, 500 g ai/ha",100
same,Goosegrass plant response rating,[4]; [19],100
same,Goosegrass plant response rating,[4]; [21],100
same,"Plant response rating, Goosegrass",[4]; Preemergence,100
same,Goosegrass plant response rating,[4]; [20],100
same,"Plant response rating, Pigweed","[5]; Postemergence, 125 g ai/ha",60
same,Pigweed plant response rating,[5]; [17],90
same,Pigweed plant response rating,[5]; [18],100
same,"Plant response rating, Pigweed","[5]; Preemergence, 500 g ai/ha",100
same,Bermudagrass plant response rating,[6]; [22],100
same,Bermudagrass plant response rating,[6]; [21],100
same,"Plant response rating, Bermudagrass",[6]; [23],100
same,Bermudagrass plant response rating,[6]; [20],100
same,"Plant response rating, Ducksalad",[7]; [24],70
same,"Plant response rating, Ducksalad",[7]; [25],90
same,"Plant response rating, Velvetleaf","[8]; Postemergence, 125 g ai/ha",60
same,Velvetleaf plant response rating,[8]; [17],80
same,Velvetleaf plant response rating,[8]; [18],60
same,"Plant response rating, Velvetleaf","[8]; Preemergence, 500 g ai/ha",100
same,Velvetleaf plant response rating,[9]; [19],90
same,Velvetleaf plant response rating,[9]; [21],95
same,"Plant response rating, Velvetleaf",[9]; Preemergence,70
same,Velvetleaf plant response rating,[9]; [20],100
same,"Foxtail, Giant plant response rating",[10]; [19],100
same,"Foxtail, Giant plant response rating",[10]; [21],100
same,"Plant response rating, Foxtail, Giant",[10]; Preemergence,100
same,"Foxtail, Giant plant response rating",[10]; [20],100
same,"Plant response rating, Barnyardgrass",[11]; [24],10
same,"Plant response rating, Barnyardgrass",[11]; [25],70
same,Surinam Grass plant response rating,[12]; [19],100
same,Surinam Grass plant response rating,[12]; [21],100
same,"Plant response rating, Surinam Grass",[12]; Preemergence,100
same,Surinam Grass plant response rating,[12]; [20],100
same,"Plant response rating, Rice",[13]; [24],20
same,"Plant response rating, Rice",[13]; [25],70
same,"Plant response rating, Corn","[14]; Postemergence, 125 g ai/ha",50
same,Corn plant response rating,[14]; [17],80
same,Corn plant response rating,[14]; [18],30
same,"Plant response rating, Corn","[14]; Preemergence, 500 g ai/ha",80
same,Ragweed plant response rating,[15]; [19],100
same,"Plant response rating, Ragweed",[15]; Preemergence,100
same,Ragweed plant response rating,[15]; [20],100
same,"Oat, Wild plant response rating",[16]; [19],85
same,"Oat, Wild plant response rating",[16]; [21],95
same,"Plant response rating, Oat, Wild",[16]; Preemergence,85
same,"Oat, Wild plant response rating",[16]; [20],95
